What was measured:
[1] = tested on: tps1Δ cells; assay: Growth rescue of tps1Δ strain on glucose (growth curves, 2% galactose medium); type: cell-based, S. cerevisiae; conditions: 100 μM compound, 2.5 mM glucose
Procedure: Growth curves were made by measuring OD595 in a 96-well plate using the Multiskan™ FC Microplate Photometer (Thermo Fisher Scientific). Typically, for tps1Δ rescue experiments (FIG. 2b-e; FIG. 4a), cells were (pre)grown in Complete Synthetic medium containing 2% galactose.
Compounds were always added 10 min prior to glucose addition to ensure maximal interaction between the cells and compounds. Cells originating from the preculture were harvested, washed in medium without sugar, after which they were resuspended to an OD of 0.1 in 200 μL of the appropriate medium. At least three technical replicates were included per condition. OD595 was measured at 30° C. every 30 min with a 10-min shaking interval.

[2] = tested on: A549 lung adenocarcinoma cells; assay: A549 cell proliferation / growth inhibition; type: cell-based, human; conditions: for Selected from primary screen for growth inhibition of A549 cells at 50 μM: 50 μM compound, 1 mM glucose; for Selected for having an IC50 ratio (10 mM glucose: 1 mM glucose) of A549 growth higher than WBC-A: IC50 on 10 mM vs 1 mM glucose, compared with WBC-A
Procedure: The analog library (n=203) was screened for inhibition of growth of A549 cells on RPMI medium supplemented with 1 mM glucose. DMSO (green bar) and WBC-A (orange bar) served as negative and positive control, respectively. In addition, the reference glucose transport inhibitors STF-31, Fasentin, BAY-876, WZB-117 and Cytochalasin B were included and indicated in red. Compounds were added at 50 μM concentration. Number of cells was determined by counting nuclei stained by Hoechst after three days of growth.
For both adherent A549 and MCF10Δ H-RAS^V12 cell lines, growth curves were established using the IncuCyte® ZOOM technology. By collecting phase contrast images, the IncuCyte® software provides a calculated confluency percentage from which growth curves can be deducted.
Cells were seeded at a density of 1000-1500 cells/well in a Nunc-Edge™ 96-well plate (Thermo Fisher Scientific) and growth was typically measured over 3 to 5 days. For the measurement of apoptosis induction using the MCF10Δ H-RAS^V12 cell line, the IncuCyte® Caspase-3/7 green dye was added to the medium in the recommended concentration at the beginning of the growth curve experiment. Apoptosis was detected by taking fluorescent images by excitation at 488 nm followed by IncuCyte® software analysis. Cell growth of the KMS-12-PE multiple myeloma cell line, which grows in suspension, was measured by manual cell counting. Cells were initially seeded at a density of 10^4 cells/well and incubated for 4 days after which the cell number was counted. For all cell lines, the same medium used for pregrowth was also used for the growth curve experiment, albeit with different glucose concentrations depending on the experimental design. With compound administration, the final concentration of DMSO never exceeded 0.1%. Typically, at least four technical repeats were included per condition.

| Structure (SMILES) | Rescue of the tps1Δ strain on 2.5 mM glucose at 100 μM [1] | Selected from primary screen for growth inhibition of A549 cells at 50 μM [2] | Selected for having an IC50 ratio (10 mM glucose: 1 mM glucose) of A549 growth higher than WBC-A [2] |
| --- | --- | --- | --- |
| c1ccn2c(Sc3ncnc4sccc34)nnc2c1 [46A] | No | No |  |
| CC(C)Sc1nc(SCCN2CCOCC2)c2c3c(sc2n1)COC(C)(C)C3 [80C] | No | No |  |
| COc1ccc(-c2csc3ncnc(Sc4nnc(-c5cccc(C)c5)n4CC(N)=O)c23)cc1 [21A] | No | Yes | Lower IC50 ratio |
| CNc1nnc(Sc2nc(C)nc3scc(-c4cccs4)c23)s1 [32A] | No | No |  |
| CCn1c(Sc2nc(C)nc3scc(-c4cccs4)c23)n[nH]c1=O [51A] | No | Yes | Lower IC50 ratio |
| CCc1nc(Sc2nnc(CO)n2C)c2ccsc2n1 [41A] | No | Yes | Lower IC50 ratio |
| Cc1nc(NCC(=O)Nc2c(C)cccc2C)c2c(-c3cccs3)csc2n1 [29C] | No | No |  |
| Cc1nc(SCCO)c2c(-c3cccs3)csc2n1 [47A] | Yes | Yes | Lower IC50 ratio |
| OCCCSc1ncnc2scc(-c3ccc(F)cc3)c12 [53C] | No | No |  |
| Cn1nnnc1Sc1ncnc2scc(-c3ccc(Cl)cc3)c12 [48A] | No | Yes | Lower IC50 ratio |
| Cc1nc(N2CCCC(c3nncn3C)C2)c2c(-c3cccs3)csc2n1 (stereo not shown) [38A] | No | No |  |
| Cc1nc(SCCO)c2c(C)c(C)sc2n1 [57C] | No | No |  |
| Cc1nc(SCCN2CCOCC2)c2cc(-c3ccccc3)sc2n1 [41C] | No | Yes | Lower IC50 ratio |
| CCOC(=O)CSc1nc(CN2CCOCC2)nc2scc(-c3cccs3)c12 [35B] | No | No |  |
| Cc1nc(SCC(=O)NCC(F)(F)F)c2c(-c3cccs3)csc2n1 [31B] | No | No |  |
| Cc1nc(Sc2nnc3ccccn23)c2c(-c3cccs3)csc2n1 [30A] | No | No |  |
| Cc1nc(SCC(=O)NCC(=O)Nc2cccc(C)c2C)c2c(-c3cccs3)csc2n1 [41B] | No | No |  |
| Cc1nc(Sc2nnnn2C2CC2)c2c(-c3ccccc3)csc2n1 [56A] | No | Yes | Lower IC50 ratio |
| Cc1ccc(-c2csc3ncnc(Sc4ncccn4)c23)cc1 [50A] | No | No |  |
| O=C(CSc1ncnc2scc(-c3ccccc3)c12)N1CCOCC1 [60C] | No | No |  |
| CCn1nnnc1Sc1nc(CN2CCOCC2)nc2scc(-c3cccs3)c12 [8C] | No | Yes | Lower IC50 ratio |

| Structure (SMILES) | Rescue of the tps1Δ strain on 2.5 mM glucose at 100 μM [1] | Selected from primary screen for growth inhibition of A549 cells at 50 μM [2] | Selected for having an IC50 ratio (10 mM glucose: 1 mM glucose) of A549 growth higher than WBC-A [2] |
| --- | --- | --- | --- |
| Cc1nc(NC2CCN(CC(N)=O)CC2)c2c(-c3cccs3)csc2n1 [48B] | No | Yes | Lower IC50 ratio |
| CCCN(CC(=O)N(C)C)c1nc(C)nc2scc(-c3cccs3)c12 [46B] | No | Yes | Lower IC50 ratio |
| COc1ccccc1NC(=O)CSc1ncnc2scc(-c3ccccc3)c12 [11B] | No | No |  |
| c1nc(Sc2nnc3n2CCCCC3)c2c3c(sc2n1)CCCC3 [65A] | No | No |  |
| COc1ccccc1-n1ncc2c(C)nnc(SCC(N)=O)c21 [68C] | No | No |  |
| Cc1nc(NCC(=O)Nc2ccccc2Br)c2c(-c3cccs3)csc2n1 [15C] | No | Yes | Higher IC50 ratio and confirmed |
| COc1ccc(-c2csc3nc(C)nc(SCCO)c23)cc1OC [18C] | No | No |  |
| Cc1nc(SCCO)c2c3c(sc2n1)CCC3 [24C] | No | No |  |
| Cc1nc(NCC(=O)N2CCCC2)c2c(-c3cccs3)csc2n1 [24B] | No | Yes | Lower IC50 ratio |
| CCN(C(=O)CSc1nc(C)nc2scc(-c3cccs3)c12)C1CCS(=O)(=O)C1 (stereo not shown) [2C] | Yes | Yes | Lower IC50 ratio |
| Cc1nc(Sc2nnc(-c3ccoc3C)n2C)c2c(-c3cccs3)csc2n1 [63C] | No | No |  |
| Cc1nc(SCC(=O)C(C)(C)C)c2c(-c3cccs3)csc2n1 [18A] | No | Yes | Lower IC50 ratio |
| CN(Cc1nnc2n1CCCCC2)c1ncnc2sc(-c3ccccc3)cc12 [34A] | No | No |  |
| Cc1nc(N(C)Cc2nnc3n2CCCCC3)c2c(-c3ccccc3)csc2n1 [33A] | No | No |  |
| CCNc1nnc(Sc2nc(C)nc3scc(-c4cccs4)c23)s1 [46C] | No | No |  |
| Cc1nc(N2CCNC(=O)C2)c2c(-c3cccs3)csc2n1 [3B] | No | No |  |
| Cc1nc(SCC(=O)NC(N)=O)c2c(-c3cccs3)csc2n1 [6B] | Yes | Yes | Lower IC50 ratio |
| Cc1nc(SC(C)C(=O)NC(C)C)c2c(-c3cccs3)csc2n1 (stereo not shown) [33B] | No | Yes | Lower IC50 ratio |
| Cc1nc(SC(C(=O)NC(N)=O)C(C)C)c2c(-c3cccs3)csc2n1 (stereo not shown) [34B] | No | No |  |
| COc1ccc(OC)c(NC(=O)CSc2nc(C)nc3scc(-c4cccs4)c23)c1 [21B] | No | No |  |
| COc1ccc(-c2csc3nc(C)nc(Sc4nnc(C)n4C)c23)cc1OC [5A] | No | No |  |

Source: patent publication US20240252508A1, “Novel glucose uptake inhibitors for use in the treatment of cancer” (NOVELYEAST BV, priority 2021, published 2024)
